Reference: patent US11034725B2, “Compositions and methods for treating cardiovascular disease” (Genentech, Inc., priority 2016, dated 2021)
“Also recorded” adds a separate entry of the source. Like-named read-outs stand apart in the source and are kept apart here. Bridge positions count the residues as written; N and C are the ends. Peptide text beside a SMILES is read from it. * marks the point of attachment. 5FAM = O=C1OC2(c3ccc(O)cc3Oc3cc(O)ccc32)c2ccc(C(=O)*)cc21

Columns and labels:
[1] = molecular target: T1, PCSK9Δhelix (Homo sapiens, UniProt Q8NBP7); assay: Surface plasmon resonance biosensor-based affinity analysis (Example 4); format: binding; settings: for Kd: Table 7, Target PCSK9Δhelix, SPR at 20° C., read-out: Kd
T1 construct: Human PCSK9 construct M1-Q692 with an engineered TEV site (residue deletion Y166, R167); made in house; host or cells: CHO
Procedure: All assays were conducted at an analysis temperature of 20° C. Samples were held at 10° C. in the sample rack to prevent denaturation of PCSK9 proteins. A biacore T100 from GE HealthCare and a SensiQ Pioneer FE were employed. All reagents were obtained from Sigma-Aldrich unless otherwise stated. The full set of peptides was analyzed using three closely related biosensor protocols that were expected to report equivalent affinity/kinetic parameters. The need for multiple protocols was related to the aggregation potential of some peptides. The buffer composition was largely conserved other than the addition of solubilizers such as dimethylsulfoxide (DMSO), 10 kDa polyvinylpyrrolidone (PVP) and 10 kDa carboxymethylated dextran (CM dextran).
A Series S NTA sensor chip was docked in the Biacore T100 biosensor system. The system was primed into running buffer (i.e. 50 mM HEPES, 0.15 M NaCl, 0.005% T20, pH 7.5). Hexahistidine-tagged proteins (“hexahistidine” disclosed as SEQ ID NO: 297) (i.e. PCSK9 or PCSK9Δhelix) were affinity captured onto separate sensing channels where at least one sensing surface remained uncoated in order to be applied as a referencing sensing surface. Compound samples were prepared in running buffer and injected. All affinity bound complexes were then removed before reloading each protein in order to test the next sample. Each sample cycle therefore consisted of five sequential injections that were repeated for each test sample as follows.
Injected sample using high quality injection mode. […] For these compounds the entire sample cycle consisting of five serial injections was repeated for each dilution. This sample cycle was a repeated sequence that is executed for each sample in the sample table.
This method was identical to method 1 except an alternative injection mode designated as single cycle kinetics (named by the manufacturer) was employed allowing a full dilution series to be completed during each sample cycle by replacing a single compound dilution injection with five sequential injections of increasing concentration. The resulting sensorgram (i.e. response curve) contained five binding-dissociation phases each associated with each injected compound dilution. The activation, capture and regeneration injections remained unchanged. […] Also CM dextran (Sigma-Aldrich product number 86524) was added to all buffers in the assay to a final concentration of 2 mg/mL in order to further lower non-specific binding to the surface. […] All recorded binding curves were automatically double referenced and fitted with a 1:1 model using BIAevaluation analysis software from GE HealthCare.
This instrument is analogous to Biacore AB biosensors in terms of surface chemistry, flow injection analysis and methodologies that can be employed except that it also provides a method to titrate compounds over the sensing surfaces.

[2] = molecular target: T1, PCSK9Δhelix; assay: PCSK9Δhelix/Ab20 TR-FRET binding assay
Procedure: (§1) The former was based on a TF-FRET assay to measure the association of the EGF(A) domain of the LDLR to PCSK9 (“PCSK9/EGF(A) binding assay”) whilst the latter was based on a TR-FRET assay to measure binding of Ab20 to PCSK9Δhelix (“PCSK9Δhelix/Ab20 binding assay”).
(§2) The ability of compounds to inhibit binding to PCSK9 was evaluated with a panel of time-resolved fluorescence resonance energy transfer (TR-FRET) binding assays. […] The PCSK9Δhelix/Ab20 binding assay evaluated the ability of compounds to compete with Ab20 for binding to the N-terminal groove region in a His-tagged, PCSK9Δhelix construct. […] Signal generation in the PCSK9 binding assays was dependent upon the binding interaction to bring into close proximity the His-tag on the PCSK9 and the Fc-tag on the ligand. Anti-His-APC was bound to the His-tag, and anti-Fc-europium was bound to the Fc-tag. When these two antibodies were in close proximity and were irradiated with light at 340 nm, the europium was excited and emitted energy at 615 nm. This energy was taken up by the APC and was emitted as light at 665 nm. Compounds that competed with the ligand reduced the energy transfer and thus the emission at 665 nm. In the His-EGFA-Fc molecule in the counterscreen, the two tags were always in close proximity, thus any reduction in emission at 665 nm was due to interference with the detection system.
(§3) Compounds were solubilized and dilutions were prepared in DMSO. […] The plate was centrifuged to mix the well contents and allowed to incubate for 30 min. […] The TR-FRET signal was read on a ViewLux reader (PerkinElmer) with excitation at 340 nm and emission at 615 and 665 nm with a 50-μs time delay between excitation and measurement of emission. The TR-FRET ratio was calculated as the fluorescence emission at 665 nm divided by the fluorescence emission at 615 nm. The normalized TR-FRET ratios were plotted as a function of the compound concentrations, and the IC50 values were determined using a 4-parameter logistic regression.
(§4) In black 1536-well assay plates (MaKO, Aurora® Microplates, Whitefish, Mont.), 40 nL of peptide in DMSO were preincubated with 2 μL His-tagged PCSK9 plus anti-His-allophycocyanin in assay buffer (50 mM Tris-HCl, pH 7.5, 150 mM NaCl, 2 mM CaCl2, 0.01% Tween®-20, 0.1% bovine gamma globulins, and protease inhibitor cocktail) for 30 min. Then 2 μL of Fc-tagged ligand and anti-Fc-europium in assay buffer were added and allowed to incubate for 2 h.

[3] = system: His-EGF(A)-Fc; assay: His-EGF(A)-Fc TR-FRET counterscreen
Procedure: as §1, §2, §3, §4

[4] = molecular target: PCSK9 (Homo sapiens, UniProt Q8NBP7); assay: PCSK9/EGF(A) TR-FRET binding assay; settings: for IC50: TR-FRET, read-out: PCSK9/EGF(A) IC50
[5] = molecular target: T2, PCSK9-R167A:R215A:R218A (PCSK9-AAA) (Homo sapiens, UniProt Q8NBP7, R167A/R215A/R218A); assay: FXIa cleavage assay of the P′ helix of PCSK9-AAA; format: biochemical; settings: immunoblot with anti-N-terminal peptide antibody
T2 construct: made in house; host or cells: CHO (transient)
Procedure: The PCSK9-AAA mutant (2.6 μM) was incubated with 50 nM FXIa (Haematologic Technologies) in Tris buffer (50 mM Tris, 150 mM NaCl, 4 mM CaCl2, pH 8.0) at room temperature for the indicated time periods. […] After SDS-PAGE of the samples, proteins were transferred to a nitrocellulose membrane using iBlot (Invitrogen). Proteins were then probed with a polyclonal rabbit antibody (1:3000) raised against the PCSK9 N-terminal peptide (^153[…]^168 (SEQ ID NO: 5)), followed with HRP-conjugated donkey anti-rabbit antibody (1:5000, GE Healthcare) using iBind (Invitrogen). PCSK9 signals were detected by ECL (GE Healthcare) and visualized by autoradiography.
Proteins were then probed with a polyclonal rabbit antibody (1:3000) raised against the PCSK9 N-terminal peptide (^153[…]^168 (SEQ ID NO: 5)), followed with HRP-conjugated donkey anti-rabbit antibody (1:5000, GE Healthcare) using iBind (Invitrogen). PCSK9 signals were detected by ECL (GE Healthcare) and visualized by autoradiography.

[6] = molecular target: T1, PCSK9Δhelix; assay: SPR affinity measurements of peptide binding (Example 8); settings: Table 10, binding to PCSK9Δhelix
Procedure: A Biacore™ T100 or Biacore™ 8K was adjusted to 20° C. The system was primed into assay buffer which consisted of 25 mM HEPES, pH 7.5, 0.15 M NaCl, 0.005% (v/v) Tween® 20, 0.2 mM tris(2-carboxyethyl)phosphine and optionally contained 0.1% (w/v) carboxymethylated dextran (average MW 10 kDa) and 0.2% (w/v) PEG (average MW 3450 Da) in order to reduce potential non-specific binding. Peptides were assayed by capturing fresh PCSK9 or PCSK9Δhelix after each binding regeneration cycle by exploiting a histidine tag and an NTA-sensor chip. The surface was charged with (His)8-tagged PCSK9 (approximately 800 RU captured). […] Compound 19 and Compound 20 were assayed in six serial two-fold dilutions from 100 nM to 3.1 nM. All peptides were analyzed in duplicate by serial injection (50 μL/min for 1 min) of peptide dilution from low to high concentration. The surface was then stripped of target by injecting 0.5 M EDTA, pH 8.0. This sequence was repeated for each peptide binding cycle and blank control cycles.
All SPR data was recorded in duplicate for five, or more serial dilutions, except for the two fusion peptides, which produced extremely low fitting error. Multicycle data (i.e. separate curves for each concentration) and single cycle data (i.e. single curve with serial injection of each concentration) were double referenced and fitted to an interaction model using BIAevaluation software. Peptide binding to PCSK9 produced deviations from a simple 1:1 binding interaction model that required application of a two-state model for determination of Kd while interactions with PCSK9Δhelix conformed well to simple 1:1 binding. Kinetic curvature was poorly defined for rapidly dissociating peptides and in these cases Kd was estimated from a steady-state dose response plot. Kd values were reported with associated standard error, a measure of confidence in that parameter value.

[7] = TR-FRET, Example 7, read-out: PCSK9Δhelix/Ab20 IC50
[8] = Table 8D, disulfide-cyclized extension peptides
[9] = TR-FRET, Table 8D, disulfide-cyclized extension peptides, read-out: PCSK9Δhelix/Ab20 IC50
[10] = TR-FRET counterscreen, Table 8D, * = some inhibition at highest concentrations, not sufficient to fit an IC50

T1 sequence (Q8NBP7 with tags, fused parts or gaps limits assumed): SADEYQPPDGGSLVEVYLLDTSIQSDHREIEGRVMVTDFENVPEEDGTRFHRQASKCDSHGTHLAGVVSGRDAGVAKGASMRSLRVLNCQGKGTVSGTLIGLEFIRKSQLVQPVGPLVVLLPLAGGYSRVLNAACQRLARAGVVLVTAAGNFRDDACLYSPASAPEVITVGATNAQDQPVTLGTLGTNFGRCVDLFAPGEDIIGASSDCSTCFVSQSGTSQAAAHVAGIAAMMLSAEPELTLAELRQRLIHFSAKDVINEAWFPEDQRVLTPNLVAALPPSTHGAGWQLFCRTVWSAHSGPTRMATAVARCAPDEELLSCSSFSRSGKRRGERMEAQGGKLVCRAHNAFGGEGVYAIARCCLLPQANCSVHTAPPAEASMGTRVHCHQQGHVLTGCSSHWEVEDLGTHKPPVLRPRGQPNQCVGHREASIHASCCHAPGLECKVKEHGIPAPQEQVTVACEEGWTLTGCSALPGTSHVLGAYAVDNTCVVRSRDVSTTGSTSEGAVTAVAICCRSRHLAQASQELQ
T1 sequence (Q8NBP7 31-152 partner limits assumed): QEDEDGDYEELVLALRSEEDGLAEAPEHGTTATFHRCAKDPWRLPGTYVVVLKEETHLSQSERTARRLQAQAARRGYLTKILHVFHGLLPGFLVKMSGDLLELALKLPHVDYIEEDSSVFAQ
Sequence of PCSK9 (Q8NBP7 153-692): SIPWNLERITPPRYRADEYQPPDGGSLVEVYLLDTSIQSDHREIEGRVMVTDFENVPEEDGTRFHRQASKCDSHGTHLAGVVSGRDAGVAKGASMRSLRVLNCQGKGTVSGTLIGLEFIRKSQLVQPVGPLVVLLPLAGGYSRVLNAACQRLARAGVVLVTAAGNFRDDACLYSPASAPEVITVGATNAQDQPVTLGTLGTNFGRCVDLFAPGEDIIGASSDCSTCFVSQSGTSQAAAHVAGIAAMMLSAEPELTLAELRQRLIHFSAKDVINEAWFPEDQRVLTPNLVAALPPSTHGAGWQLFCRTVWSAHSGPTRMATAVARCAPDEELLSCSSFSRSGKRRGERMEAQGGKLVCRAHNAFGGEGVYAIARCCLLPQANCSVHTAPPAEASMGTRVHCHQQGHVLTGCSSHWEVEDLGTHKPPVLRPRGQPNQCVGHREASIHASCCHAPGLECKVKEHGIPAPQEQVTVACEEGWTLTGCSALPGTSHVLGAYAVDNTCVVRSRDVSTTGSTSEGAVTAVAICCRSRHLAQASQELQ
Sequence of PCSK9 (Q8NBP7 31-152 partner limits assumed): as the sequence (Q8NBP7 31-152 partner limits assumed) above
T2 sequence (Q8NBP7 153-692 R167A/R215A/R218A): as the sequence (Q8NBP7 153-692) above, with R15A, R63A, R66A counted along it

| Compound | Kd [1] [µM] | IC50 [2, 7] [µM] | IC50 ([3]; counterscreen, Example 7) [µM] | IC50 ([4]; Example 7) [µM] | also measured |
| --- | --- | --- | --- | --- | --- |
| CC[C@H](C)[C@@H]1NC(=O)[C@H](CCCNC(=N)N)NC(=O)[C@H](CCCCN)NC(=O)[C@H](CC(C)C)NC(=O)[C@H](CC(N)=O)NC(=O)[C@H](Cc2c[nH]c3ccccc23)NC(=O)[C@@H](NC(=O)CNC(=O)[C@H](CO)NC(=O)CNC(=O)[C@@H](NC(=O)[C@H](Cc2c[nH]c3ccccc23)NC(=O)[C@H](CC(=O)O)NC(=O)[C@H](CC(C)C)NC(=O)[C@H](Cc2ccc(O)cc2)NC(=O)[C@H](CCC(=O)O)NC(=O)[C@H](CCC(=O)O)NC(=O)[C@H](Cc2c[nH]c3ccccc23)NC(=O)[C@H](CO)NC(=O)[C@@H](NC(=O)[C@H](Cc2ccccc2)NC(=O)[C@@H](NC(=O)[C@@H](NC(C)=O)[C@@H](C)O)C(C)C)[C@@H](C)O)C(C)C)CSSC[C@@H](C(N)=O)NC(=O)CNC(=O)[C@H](CCC(N)=O)NC(=O)[C@H](CO)NC(=O)CNC1=O [Compound 2] (Ac-TVFTSWEEYLDWVGSGCWNLKRIGSQGC-NH2; disulfide 17-28) | 0.00187 | 0.004 | > 50 | – | – |
| CC[C@H](C)[C@@H]1NC(=O)[C@H](CCCNC(=N)N)NC(=O)[C@H](CCCCN)NC(=O)[C@H](CC(C)C)NC(=O)[C@H](CC(N)=O)NC(=O)[C@H](Cc2c[nH]c3ccccc23)NC(=O)[C@@H](NC(=O)CCCCCNC(=O)[C@@H](NC(=O)[C@H](Cc2c[nH]c3ccccc23)NC(=O)[C@H](CC(=O)O)NC(=O)[C@H](CC(C)C)NC(=O)[C@H](Cc2ccc(O)cc2)NC(=O)[C@H](CCC(=O)O)NC(=O)[C@H](CCC(=O)O)NC(=O)[C@H](Cc2c[nH]c3ccccc23)NC(=O)[C@H](CO)NC(=O)[C@@H](NC(=O)[C@H](Cc2ccccc2)NC(=O)[C@@H](NC(=O)[C@@H](NC(C)=O)[C@@H](C)O)C(C)C)[C@@H](C)O)C(C)C)CSSC[C@@H](C(N)=O)NC(=O)CNC(=O)[C@H](CCC(N)=O)NC(=O)[C@H](CO)NC(=O)CNC1=O [Compound 17] | 0.000123 | 0.001 | > 50 | 0.009 | Kd range for PCSK9Δhelix binding [1]: sub-nanomolar range; inhibition in the PCSK9/EGF(A) binding assay [4]: maintained potency; inhibition in the PCSK9Δhelix/Ab20 binding assay [2]: maintained potency |
| CC[C@H](C)[C@@H]1NC(=O)[C@H](CCCNC(=N)N)NC(=O)[C@H](CCC(N)=O)NC(=O)[C@H](CC(C)C)NC(=O)[C@H](CC(N)=O)NC(=O)[C@H](Cc2c[nH]c3ccccc23)NC(=O)[C@@H]2CCCN2C(=O)[C@H]([C@@H](C)CC)NC(=O)[C@H](Cc2ccccc2)NC(=O)[C@@H](NC(=O)CNC(=O)[C@H](CO)NC(C)=O)CSSC[C@@H](C(N)=O)NC(=O)[C@H](CC(C)C)NC(=O)[C@H](CC(C)C)NC(=O)CNC1=O [Compound 29] (Ac-SGCFIPWNLQRIGLLC-NH2; disulfide 3-16) | – | – | – | – | IC50 [4, 8]: > 50 µM; IC50 [2, 9]: 1.9 µM; IC50 [3, 10]: > 50 µM; effect on FXIa-mediated cleavage of the P′ helix of PCSK9-AAA [5]: accelerated the cleavage reaction; also recorded: able to increase the FXIa-mediated cleavage; also recorded: strongly accelerated the cleavage |
| CC[C@H](C)[C@@H]1NC(=O)[C@H](CCCNC(=N)N)NC(=O)[C@H](CCC(N)=O)NC(=O)[C@H](CC(C)C)NC(=O)[C@H](CC(N)=O)NC(=O)[C@H](Cc2c[nH]c3ccccc23)NC(=O)[C@@H]2CCCN2C(=O)[C@H]([C@@H](C)CC)NC(=O)[C@H](Cc2ccccc2)NC(=O)[C@@H](NC(C)=O)CSSC[C@@H](C(N)=O)NC(=O)[C@H](CC(C)C)NC(=O)[C@H](CC(C)C)NC(=O)CNC1=O [Compound 31] (Ac-CFIPWNLQRIGLLC-NH2; disulfide 1-14) | 3.01 | – | – | – | IC50 [4, 8]: > 50 µM; IC50 [2, 9]: 2.4 µM; IC50 [3, 10]: > 50 µM |
| CC[C@H](C)[C@@H]1NC(=O)[C@H](CCCNC(=N)N)NC(=O)[C@H](CCC(N)=O)NC(=O)[C@H](CC(C)C)NC(=O)[C@H](CC(N)=O)NC(=O)[C@H](Cc2c[nH]c3ccccc23)NC(=O)[C@@H]2CCCN2C(=O)[C@H]([C@@H](C)CC)NC(=O)[C@H](Cc2ccccc2)NC(=O)[C@@H](NC(=O)CNC(=O)[C@H](CO)NC(=O)CNC(=O)[C@H](CO)NC(=O)c2ccc3c(c2)C(=O)OC32c3ccc(O)cc3Oc3cc(O)ccc32)CSSC[C@@H](C(N)=O)NC(=O)[C@H](CC(C)C)NC(=O)[C@H](CC(C)C)NC(=O)CNC1=O [Compound 33] (5FAM-SGSGCFIPWNLQRIGLLC-NH2; disulfide 5-18) | 10 | – | – | – | – |
| CC[C@H](C)[C@@H]1NC(=O)[C@H](CCCNC(=N)N)NC(=O)[C@H](CCCCN)NC(=O)[C@H](CC(C)C)NC(=O)[C@H](CC(N)=O)NC(=O)[C@H](Cc2c[nH]c3ccccc23)NC(=O)[C@H](CC(C)C)NC(=O)[C@@H](NC(=O)[C@H](Cc2ccccc2)NC(C)=O)CSSC[C@@H](C(=O)N[C@@H](Cc2c[nH]c3ccccc23)C(=O)N[C@@H](Cc2ccccc2)C(N)=O)NC(=O)[C@H](CCC(N)=O)NC(=O)[C@H](C)NC(=O)CNC1=O [Compound 96] (Ac-FCLWNLKRIGAQCWF-NH2; disulfide 2-13 (inferred)) | 2.5 | – | – | – | – |
| Ac-ALMPWNLVRIGLLR-NH2 [Compound 45] | 8.2 | 2.02 | > 50 | > 50 | – |
| Ac-DLMPWNLVRIGLAR-NH2 [Compound 55] | 2.8 | 9.7 | > 50 | > 50 | – |
| Ac-DLMPWNLVRIGLLR-NH2 [Compound 35] | – | 4.8 | > 50 | > 50 | IC50 ([2]; Table 10, average ±S.D. of three experiments, read-out: Ab20 IC50): 7.9 ± 0.1 µM; Kd [6]: 1.38 µM |
| Ac-GGMPWNLVRIGLLR-NH2 [Compound 125] | – | – | – | – | IC50 ([4]; Table 8E, additional compounds): ≥ 50 µM; IC50 ([2]; TR-FRET, Table 8E, additional compounds, read-out: PCSK9Δhelix/Ab20 IC50): 7 µM; IC50 ([3]; TR-FRET counterscreen, Table 8E, additional compounds): ≥ 50 µM |
